{"source": "patent US12514842B2", "about": "“Use of a benzoate containing composition to treat neurodegenerative disorders” (Rush University Medical Center, priority 2019, dated 2026)", "key": {"astroglial activation": {"test_system": "astroglial activation", "experiment": "Astroglial activation in striatum and cortex (GFAP DAB staining)", "type": "in vivo", "conditions": "N171-82Q Tg mice, about 50 mg/kg body wt/day via gavage, two months", "method": "Three-month old transgenic (Tg) mice were treated with glyceryl tribenzoate (about 50 mg/kg body wt/day) via gavage. Control Huntington's disease mice received only 100 μl 0.5% methylcellulose as vehicle. After two months of treatment, astroglial activation was monitored in striatal (FIG. 5A) and cortical (FIG. 5B) sections by DAB staining. Further, the number of glial fibrillary acidic protein (GFAP) (+)ve cells were counted in two striatal (FIG. 5C) and cortical (FIG. 5D) sections of each of six mice per group.\nSince astroglia are the major cell type in the CNS, any contribution from this cell type would be significant. Therefore, the inventor also monitored astrogliosis in the CNS of N171-82Q Tg mice."}, "[1]": {"test_system": "interleukin-6 (IL-6) and IL-1β", "experiment": "Serum proinflammatory cytokines by sandwich ELISA", "type": "in vivo", "conditions": "N171-82Q mice, 50 mg/kg body wt/d via gavage, 1 month", "method": "Three-month old Tg mice (n=3 in each group) were treated with GTB (50 mg/kg body wt/d) mixed with 100 μl 0.5% methylcellulose via gavage. Therefore, control HD mice received only 100 μl 0.5% methylcellulose as vehicle. After 1 month of treatment, levels of interleukin-6 (IL-6) and IL-1β were measured in serum by sandwich ELISA.\nResults are mean+SEM of three mice per group. *p<0.05; ***p<0.001."}, "[2]": {"test_system": "huntingtin (HTT) inclusion bodies", "experiment": "Huntingtin inclusion bodies in striatum and cortex by immunohistochemistry and Western blotting", "type": "in vivo", "conditions": "N171-82Q Tg mice, about 50 mg/kg body wt/day via gavage, two months", "method": "Deposition of huntingtin (HTT) inclusion bodies is a pathological hallmark of Huntington's disease. This pathology is based on an expansion of CAG repeats in exon 1 of the huntingtin gene on chromosome 4 that generates a mutant huntingtin protein leading to abnormal HTT aggregates.\nBriefly, three-month old transgenic mice were treated with GTB (about 50 mg/kg body wt/day) via gavage. Control Huntington's disease mice received only 100 μl 0.5% methylcellulose as vehicle. After two months of treatment, huntingtin inclusion bodies (HTT) were monitored in brain sections (striatal—FIG. 2A, cortical—FIG. 2B) by immunohistochemistry. Further, HTT positive (“(+)ve”) cells were counted in two sections (striatal—FIG. 2C, cortical—FIG. 2D) of each of six mice per group.\nFIG. 2A and 2B show the results from immunohistochemistry, which indicate that administration of GTB reduces the number of HTT inclusion bodies in striatum and cortex. FIGS. 2C and 2D show the number of HTT (+ve) cells in striatum and cortex of GTB treated and untreated mice and indicate a reduction in the number of HTT in treated mice.\nThis was also confirmed by Western blotting. By Western blotting, the inventor could detect 348 kDa band of aggregated HTT in the cortex that was inhibited by oral GTB treatment (FIG. 2E-2F)."}, "[3]": {"test_system": "Huntington transgenic (N171-82Q) mice", "experiment": "Locomotor activities after glyceryl tribenzoate nebulization in Huntington transgenic mice", "type": "in vivo", "conditions": "nebulization about 2 and about 5 mg/kg body wt/day, six weeks", "text": "Since many features of Huntington's disease are modeled in N171-82Q transgenic mice, the effects of glyceryl tribenzoate nebulization on locomotor activities were examined in N171-82Q mice. A Buxco® Inhalation Tower All-In-One Controller was used to nebulize the glyceryl tribenzoate. A whole-body chamber was fitted with aeroneb ultrasonic nebulizers supplied with air from a Buxco® bias flow pump. Huntington transgenic (N171-82Q) mice were allowed to nebulize glyceryl tribenzoate at doses of about 2 and about 5 mg/kg body wt/day (solubilized in a volume of 100 μl saline/mouse) for 3 min. Briefly, three-month old transgenic mice were treated with different doses (about 2 and about 5 mg/kg body wt/d) of glyceryl tribenzoate solubilized in about 100 μl saline via nebulization. Control Huntington's disease mice received only 100 μl saline as vehicle. After six weeks of treatment, locomotor activities were monitored. Data are mean+SEM of three mice per group.\nVelocity refers to the speed at which the mouse walks. Total distance refers to the distance covered by the mouse in a certain period of time. Moving frequency refers to how much a mouse moves around in a given time period and cumulative duration refers to total duration spent at the center."}, "microglial activation [4]": {"test_system": "microglial activation", "experiment": "Microglial activation in cortex (Iba-1 DAB staining, double-label immunofluorescence, Western blot)", "type": "in vivo", "conditions": "N171-82Q Tg mice, about 50 mg/kg body wt/day via gavage, two months", "method": "(§1) Three-month old transgenic (Tg) mice were treated with glyceryl tribenzoate (about 50 mg/kg body wt/day) via gavage. Control Huntington's disease mice received only 100 μl 0.5% methylcellulose as vehicle. After two months of treatment, microglial activation was monitored in cortical sections by DAB staining (FIG. 4A) and double-label immunofluorescence (FIG. 4B). The results shown in FIGS. 4A-4B represent an analysis of six mice per group.\nFIG. 4D depicts the Mean Fluorescence Intensity (MFI) of iNOS in control mice (nTg), untreated N171-82Q mice and GTB treated N171-82Q mice. FIG. 4E is the western blot for Iba-1 and iNOS and FIGS. 4F and 4G are a quantitative analysis of the western blot shown in FIG. 4E.\n(§2) As evident from Iba-1 immunostaining as well as Iba-1 Western blot, the inventor found microgliosis in the striatum (FIG. 3) and cortex (FIG. 4) of untreated N171-82Q Tg mice. Activated microglia also express inducible nitric oxide synthase (iNOS)."}, "microglial activation [5]": {"test_system": "microglial activation", "experiment": "Microglial activation in striatum (Iba-1 DAB staining, double-label immunofluorescence, Western blot)", "type": "in vivo", "conditions": "N171-82Q Tg mice, about 50 mg/kg body wt/day via gavage, two months", "method": "as §1, with “transgenic” for “transgenic (Tg)”, “GTB” for “glyceryl tribenzoate”, “striatal” for “cortical”, “3A)” for “4A)”, “3B).” for “4B).”, “3A-3G” for “4A-4B”\nFIG. 3D depicts the Mean Fluorescence Intensity (MFI) of iNOS in control mice (nTg), untreated N171-82Q mice and GTB treated N171-82Q mice. FIG. 3E is the western blot for Iba-1 and iNOS and FIGS. 3F and 3G are a quantitative analysis of the western blot shown in FIG. 3E.\nas §2"}, "BDNF and NT-3": {"test_system": "BDNF and NT-3", "conditions": "brain cells; cited from earlier work"}, "DJ-1": {"test_system": "DJ-1", "conditions": "astrocytes and neurons; cited from earlier work"}, "[6]": {"test_system": "multiple sclerosis (MS) in mice", "conditions": "cited from earlier work"}}}
{"compound": "O=C(OCC(COC(=O)c1ccccc1)OC(=O)c1ccccc1)c1ccccc1", "note": "[glyceryl tribenzoate, 2,3-dibenzoyloxypropyl benzoate]", "values": [{"measurement": "astrogliosis in the CNS (GFAP, striatum and cortex)", "setting": "astroglial activation", "value": "reduced"}, {"measurement": "level of IL-1β in serum", "setting": "[1]", "value": "significantly decreases"}, {"measurement": "level of IL-6 in serum", "setting": "[1]", "value": "significantly decreases"}, {"measurement": "348 kDa band of aggregated HTT in the cortex", "setting": "[2]; Western blotting", "value": "inhibited"}, {"measurement": "HTT inclusion in the cortex", "setting": "[2]; immunohistochemistry", "value": "significant reduction"}, {"measurement": "HTT inclusion in the striatum", "setting": "[2]; immunohistochemistry", "value": "significant reduction"}, {"measurement": "velocity", "setting": "[3]; FIG. 1A", "value": "markedly improved"}, {"measurement": "total distance", "setting": "[3]; FIG. 1B", "value": "markedly improved"}, {"measurement": "moving frequency", "setting": "[3]; FIG. 1C", "value": "markedly improved"}, {"measurement": "cumulative duration", "setting": "[3]; FIG. 1D", "value": "markedly improved"}, {"measurement": "rotorod performance", "setting": "[3]; FIG. 1E", "value": "markedly improved"}, {"measurement": "expression of iNOS in cortex", "setting": "microglial activation [4]", "value": "significantly inhibited"}, {"measurement": "microgliosis in cortex", "setting": "microglial activation [4]; Iba-1", "value": "significantly inhibited"}, {"measurement": "expression of iNOS in striatum", "setting": "microglial activation [5]", "value": "significantly inhibited"}, {"measurement": "microgliosis in striatum", "setting": "microglial activation [5]; Iba-1", "value": "significantly inhibited"}]}
{"compound": "O=C([O-])c1ccccc1.[Na+]", "note": "[sodium benzoate]", "values": [{"measurement": "production of BDNF", "setting": "BDNF and NT-3", "value": "increases"}, {"measurement": "production of NT-3", "setting": "BDNF and NT-3", "value": "increases"}, {"measurement": "DJ-1 protein", "setting": "DJ-1", "value": "up-regulates"}, {"measurement": "disease process of multiple sclerosis (MS)", "setting": "[6]", "value": "suppresses"}]}
